Results as given in patent US20250290099A1, “MATERIALS AND METHODS FOR TARGETED GENETIC MANIPULATIONS IN CELLS” (The Regents of the University of California, priority 2021, published 2025).

Key:
[1] = tested on: CTLA4 gene; experiment: CTLA4 gRNA screen: cutting efficiency by TIDE indel analysis; format: cell-based, human; conditions: TIDE indel analysis at target locus
Description: (§1) As a further example, we examined an ORF insertion within the CTLA4 gene (FIG. 8E). CTLA4 deficiency is caused most frequently by a haploinsufficiency with a disease-causing mutation on only 1 of 2 alleles. Exon-targeting strategies generate indels which could disrupt the normal allele and worsen disease. To avoid this possibility, we screened a panel of gRNA in intron 1, set forth in Table 3, to identify targets which cut efficiently without disrupting protein expression (FIG. 7B).

[2] = tested on: CTLA4 protein; experiment: CTLA4 gRNA screen: protein disruption by CTLA4 flow cytometric analysis; format: cell-based, human; conditions: activated CD4+ T cells, flow cytometry
Procedure: Flow Cytometry. All flow cytometry was performed on an Attune NxT flow cytometer with a 96-well autosampler (Thermo Fisher Scientific). Unless otherwise indicated, cells were collected 3-5 days post-electroporation, resuspended in FACS buffer (1%-2% BSA in PBS) and stained with Ghost Dye red 780 (Tonbo) and the indicated cell-surface and intracellular markers (see Table 2 for antibodies). For intracellular staining, cells were stained for surface markers and then prepared for intracellular staining using True-Nuclear Transcription Factor staining kits (Biolegend). […] Analysis was done using FlowJo v10 software. All gating strategies included exclusion of subcellular debris, singlet gating, and live:dead stain. Final graphs were produced with Prism (GraphPad), and figures were compiled with Illustrator (Adobe).
as §1

[3] = tested on: primary human T cells; experiment: CD5-HA knock-in with short ssDNA HDRT, knock-in efficiency by flow cytometry; format: cell-based; conditions: short ssDNA CD5-HA knock-in construct, optimal concentrations, inhibitors for 24 hours after electroporation
Description: (a) Evaluation of relative increase in % knock-in using an ssDNA CD5-HA knock-in construct over varied concentrations of 5 different small molecule inhibitors assessed by flow cytometry. […] (b) Comparison of relative % knock-in (top) and live cell counts (bottom) with small molecule inhibitor combinations. […] Panel a, b, and d were each performed with T cells from 2 independent healthy human blood donors. […] Error bars indicate standard deviation. CTS=Cas9 Target Site, HDRT=homology-directed-repair template, dsCTS=dsDNA+CTS HDRT, ssCTS=ssDNA+CTS HDRT, TSA=Trichostatin A, HDR Enhancer=IDT Alt-R HDR Enhancer, MT=M3814+TSA, MTX=M3814+TSA+XL413.
(§2) Trichostatin A (TSA) (Cayman Chemical), Nedisertib (M3814) (MedKoo Biosciences), XL413 hydrochloride (XL413) (Fisher Scientific), NU7441 (Fisher Scientific), and Alt-R HDR enhancer (IDT) were prepared and stored as aliquots per manufacturer guidelines. For experiments using small molecule inhibitors, cells were incubated with the indicated concentrations upon addition of fresh growth media following the 15 minute rescue step, and removed by media exchange after 24 hours.

[4] = tested on: IL2RA; experiment: TIDE indel analysis, RNPs targeting exon 1 of IL2RA +/- M3814 and TSA; format: cell-based, human; conditions: with addition of M3814 and TSA
Procedure: Media was refreshed after 24 hours in all samples, and cells were resuspended in growth media and IL-2. Six days after electroporations, genomic DNA was isolated from samples and amplicons were generated using PCR. Amplicons were sequenced and analyzed using TIDE (Tracking of Indels by Decomposition) to determine distinct changes in indel spectrums.

[5] = tested on: primary human T cells; format: cell-based; conditions: ssCTS tNGFR template +/- MT and MTX
Description: (a) Knock-in efficiencies for constructs targeting a tNGFR marker to 22 different target genome loci. (b-d) Comparison of large ssDNA and dsDNA HDRTs with CTS sites for knock-in of a pooled library of 2.6-3.6 kb polycistronic constructs targeted to the TRAC locus. Shown for each HDRT variation is (b) relative % knock-in in comparison to maximum for dsDNA+CTS templates, (c) relative knock-in cell count yields in comparison to maximum for dsDNA+CTS templates, and (d) representation of each library member in knock-in cells post-electroporation in comparison to construct representation the input plasmid pool. (e-g) Comparison of knock-in cell yields using ssDNA (red) and dsDNA HDRTs (blue) with CTS sites across a variety of primary human hematopoietic cell types. Note, different cell type comparisons are performed with different blood donors. All comparisons were performed using a knock-in construct generating an CLTA-mCherry fusion at the CLTA locus. Shown for each cell type using HDRT concentrations from 5-160 nM are (e) knock-in cell count yields, (f) maximum fold-change in knock-in count yields (relative to dsCTS templates), and (g) maximum % knock-in. […]
(a) Evaluation of relative increase in % knock-in using an ssDNA CD5-HA knock-in construct over varied concentrations of 5 different small molecule inhibitors assessed by flow cytometry. […]

[6] = tested on: CD5 target locus; experiment: Amplicon sequencing of the CD5 target locus, repair outcomes; format: cell-based, human; conditions: small CD5-HA templates
Description: We further examined repair outcomes at the genetic level by amplicon sequencing of the CD5 target locus with different versions of the small CD5-HA templates and inhibitor cocktails. […] The ratio of perfect:imperfect HDR events was also similar across the different types of templates. Intriguingly, […] […] Inclusion of HDR templates was associated with preferential reduction in the larger deletions characteristic of MMEJ (while smaller indels characteristic of NHEJ were more refractory in the absence of DNA-PK inhibition), in agreement with recent reports.

[7] = tested on: primary human T cells; experiment: Live cell counts after electroporation with small molecule inhibitors; format: cell-based
Procedure: (d) Evaluation of live cell counts with MT and MTX inhibitor combinations using 44 different knock-in constructs targeting a tNGFR marker across 22 different target loci with 2 gRNA per gene (g1 and g2). Panel a, b, and d were each performed with T cells from 2 independent healthy human blood donors. Panel c was performed with T cells from 4-6 independent healthy human blood donors. Error bars indicate standard deviation. CTS=Cas9 Target Site, HDRT=homology-directed-repair template, dsCTS=dsDNA+CTS HDRT, ssCTS=ssDNA+CTS HDRT, TSA=Trichostatin A, HDR Enhancer=IDT Alt-R HDR Enhancer, MT=M3814+TSA, MTX=M3814+TSA+XL413.
as §2

Molecule | %indel [1] [%] | %CTLA4 protein loss above background [2] [%] | other results
G512: gRNA, CTLA4 exon 1, target sequence CTCAGCTGAACCTGGCTACC (SEQ ID NO: 66) (listed as DNA, chemistry not given here) | 12.15 | 1.3 | –
G513: gRNA, CTLA4 exon 1, target sequence TGAACCTGGCTACCAGGACC (SEQ ID NO: 67) (listed as DNA, chemistry not given here) | 23.7 | 10.2 | –
O=c1cc(N2CCOCC2)oc2c(-c3cccc4c3sc3ccccc34)cccc12 [NU7441, 8-(dibenzo[b,d]thiophen-4-yl)-2-morpholino-4H-chromen-4-one] | – | – | increase in knock-in efficiency [3]: ~43%
G517: gRNA, CTLA4 intron 1, target sequence CTCTGAAGAGCTGAAAACTG (SEQ ID NO: 71) (listed as DNA, chemistry not given here) | 80.35 | 0 | –
CC(/C=C/C(=O)NO)=C\[C@@H](C)C(=O)c1ccc(N(C)C)cc1 [TSA, [R-(E,E)]-7-[4-(dimethylamino)phenyl]-N-hydroxy-4,6-dimethyl-7-oxo-2,4-heptadienamide] | – | – | increase in knock-in efficiency [3]: ~16%
G510: gRNA, CTLA4 exon 1, target sequence CCTTGGATTTCAGCGGCACA (SEQ ID NO: 64) (listed as DNA, chemistry not given here) | 47.7 | 16.65 | –
G515: gRNA, CTLA4 intron 1, target sequence TTGTATGCCAAACAGACTGG (SEQ ID NO: 69) (listed as DNA, chemistry not given here) | 79.25 | 0 | –
G377: crRNA/gRNA targeting IL2RA, TGAGCAGTCCCCACATCAGC (SEQ ID NO: 13) (listed as DNA, chemistry not given here) | – | – | cutting efficiency [4]: not impacted
G511: gRNA, CTLA4 exon 1, target sequence GCACAAGGCTCAGCTGAACC (SEQ ID NO: 65) (listed as DNA, chemistry not given here) | 71.85 | 32.4 | –
CD7 g1: gRNA targeting CD7, TCAGCTGCACTCGCCCGGCT (SEQ ID NO: 17), with corresponding tNGFR ssCTS template (listed as DNA, chemistry not given here) | – | – | effect size of inhibitors: increase in knock-in efficiency [5]: relatively little increase
G516: gRNA, CTLA4 intron 1, target sequence TGCATCTGAAACCCACACGT (SEQ ID NO: 70) (listed as DNA, chemistry not given here) | 61.95 | 0 | –
COc1ccc([C@@H](O)c2cc(-c3ncnc4cc(N5CCOCC5)ccc34)c(F)cc2Cl)nn1 [M3814, (S)-(2-chloro-4-fluoro-5-(7-morpholinoquinazolin-4-yl)phenyl)(6-methoxypyridazin-3-yl)methanol] | – | – | repair outcomes: frequency of indels [6]: decreased frequency of indels; increase in knock-in efficiency [3]: ~49%
Cl.O=c1[nH]c([C@@H]2CCCN2)nc2c1oc1ccc(Cl)cc12 [XL413, (S)-8-chloro-2-(pyrrolidin-2-yl)benzofuro[3,2-d]pyrimidin-4(3H)-one hydrochloride] | – | – | reduction in cell counts ([7]; Day 11): ~20%; reduction in cell counts ([7]; day 4 post-electroporation): ~50%; increase in knock-in efficiency [3]: ~46%
G509: gRNA, CTLA4 exon 1, target sequence CCTTGTGCCGCTGAAATCCA (SEQ ID NO: 63) (listed as DNA, chemistry not given here) | 78.2 | 39.2 | –
G514: gRNA, CTLA4 exon 1, target sequence AGAAAAAACAGGAGAGTGCA (SEQ ID NO: 68) (listed as DNA, chemistry not given here) | 94.35 | 47.45 | –
G519: gRNA, CTLA4 intron 1, target sequence ACATATTTCATGGTAGAGCC (SEQ ID NO: 73) (listed as DNA, chemistry not given here) | 89.65 | 0 | –
G520: gRNA, CTLA4 intron 1, target sequence GATATGACAAACAGAAGACC (SEQ ID NO: 4) (listed as DNA, chemistry not given here) | 72.5 | 0 | –
PI3KCD g2: gRNA targeting PI3KCD, TAACAACGCAGGATGCCCCC (SEQ ID NO: 38), with corresponding tNGFR ssCTS template (listed as DNA, chemistry not given here) | – | – | effect size of inhibitors: increase in knock-in efficiency [5]: up to 7 fold
